# Residues, ends and D or L forms follow the SMILES beside them.
# Test system: Vero-E6 cells
# Test: cells
# Type: cell-based
# Conditions: for activation at 10 µM: Chlorocebus sabaeus, Vero C1008, 24 h, read-out: PL_Result
Compound,activation at 10 µM [%],other results
"CCNC(=O)C[C@@H]1N=C(c2ccc(Cl)cc2)c2cc(OC)ccc2-n2c(C)nnc21 [I-BET-762, reference compound]",,result_ITMP: 13.27 percent effect
CCN(CC)CC1CCCCN1CC(=O)N1c2ccccc2C(=O)Nc2cccnc21 (centres unmarked) [SPE_A00520476],-3.51,
CC(O)c1cc(C(=O)N[C@@H](C)Cn2ccc(-c3ccc(C#N)c(Cl)c3)n2)n[nH]1 (some centres unmarked) [SPE_A01259528],-15.4,
NC[C@H]1O[C@H](O[C@H]2C(O[C@@H]3O[C@H](CO)[C@@H](O)[C@H]3O)[C@@H](O)[C@H](N)C[C@@H]2N)[C@H](N)[C@@H](O)[C@@H]1O (some centres unmarked) [SPE_A03826781],-7.3,
CCc1ccc(C(=O)C(C)CN2CCCCC2)cc1 (centres unmarked) [SPE_A04252265],-4.05,
CC(C)NCC(O)c1ccc(O)c(O)c1 (centres unmarked) [SPE_A04322457],-1.28,
Cc1nnc(C(C)C)n1C1CC2CCC(C1)N2CC[C@H](NC(=O)C1CCC(F)(F)CC1)c1ccccc1 (some centres unmarked) [SPE_A04352665],-15.3,
CC(=O)O[C@H]1C[C@@]2(C)[C@@H](C[C@@H](O)C3[C@]2(C)CC[C@H]2[C@H](C)[C@H](O)CC[C@]32C)/C1=C(/CCC=C(C)C)C(=O)O (some centres unmarked) [SPE_A06935312],-11.6,
CC(C)CC(NC(=O)C1CCCN1)C(=O)NCC(N)=O (stereo not drawn) [SPE_A09911125] (H-Pro-Leu-Gly-NH2; configuration not given here),-6.88,
Nc1ncnc2c1ncn2C1O[C@H](COP(=O)(O)O)[C@@H](O)[C@H]1O (some centres unmarked) [SPE_A10111329],-12.1,
C[C@@H]1C[C@H]2[C@@H]3CCC4=CC(=O)C=C[C@]4(C)[C@@]3(F)[C@@H](O)C[C@]2(C)[C@@]1(O)C(=O)CO [SPE_A10188456],-8.72,
CCn1ccnc1CC1COc2ccccc2O1 (centres unmarked) [SPE_A10903566],2.21,
CN1C2CCCC1CC(NC(=O)c1nn(C)c3ccccc13)C2 (centres unmarked) [SPE_A10967948],3.5,
O=C(O)[C@@H]1C[C@@H](O)CN1 [SPE_A12454076],-8.44,
NC(C(=O)O)c1nnn[nH]1 (centres unmarked) [SPE_A14757586],-5.28,
CC(C)OC(=O)c1cc2c(OCC(O)CNC(C)(C)C)cccc2[nH]1 (centres unmarked) [SPE_A15530910],15.8,
CN1C(CSCC(F)(F)F)Nc2cc(Cl)c(S(N)(=O)=O)cc2S1(=O)=O (centres unmarked) [SPE_A15739803],0.385,
CN(C)C(=O)Oc1cc(OC(=O)N(C)C)cc(C(O)CNC(C)(C)C)c1 (centres unmarked) [SPE_A17462676],-4.78,
NC(C(=O)O)c1cc(O)cc(O)c1 (centres unmarked) [SPE_A20589515],2.18,
O=C(C1CCCCC1)N1CC(=O)N2CCc3ccccc3C2C1 (centres unmarked) [SPE_A21858158],-0.34,
COc1cc([S+](C)[O-])ccc1-c1nc2ncccc2[nH]1 (centres unmarked) [SPE_A22081593],-4.2,

Compound,activation at 10 µM [%],other results
CCN(CC)CCOC(=O)C(c1ccccc1)C1CCCCC1 (centres unmarked) [SPE_A22267103],53.9,
NCC(CS(=O)(=O)O)c1ccc(Cl)cc1 (centres unmarked) [SPE_A24122750],-1.21,
CCC(=O)c1ccc(OCC(O)CN2CCN(c3ccccc3)CC2)cc1 (centres unmarked) [SPE_A28958257],-1.6,
CN(C)CCOC(c1ccc(Cl)cc1)c1ccccn1 (centres unmarked) [SPE_A29426959],-7.35,
CCCCCC(=O)O[C@]1(C(C)=O)CCC2C3CCC4=CC(=O)CC[C@]4(C)C3CC[C@@]21C (some centres unmarked) [SPE_A29731977],-5.02,
CC(C)N(CCC(C(N)=O)(c1ccccc1)c1ccccn1)C(C)C (centres unmarked) [SPE_A29734509],1.87,
NC1CCN(c2cccnc2)C1 (centres unmarked) [SPE_A29844814],-9.03,
CCN1C(=O)NC(c2ccccc2)C1=O (centres unmarked) [SPE_A30205217],-4.7,
CS(=O)(=O)c1ccc(C(O)[C@H](CF)NC(=O)C(Cl)Cl)cc1 (some centres unmarked) [SPE_A30886737],3.66,
O=C(O)CC1CC(c2ccccc2)=NO1 (centres unmarked) [SPE_A32269193],-19.4,
Clc1ccc(C(Cn2ccnc2)OCc2ccsc2Cl)c(Cl)c1 (centres unmarked) [SPE_A33084557],4.51,
Cc1cn(C2CC(N=[N+]=[N-])C(CO)O2)c(=O)[nH]c1=O (centres unmarked) [SPE_A33692381],-1.92,
Clc1ccc(C(Cn2ccnc2)OCc2ccc(Sc3ccccc3)cc2)c(Cl)c1 (centres unmarked) [SPE_A33697453],17.3,
CCCCC1C(=O)N(c2ccccc2)N(c2ccc(O)cc2)C1=O (centres unmarked) [SPE_A33749298],2.66,
CC(CCc1ccccc1)NC(C)C(O)c1ccc(O)cc1 (centres unmarked) [SPE_A36267905],-4.99,
CC(C)(C)NCC(O)c1ccccc1Cl (centres unmarked) [SPE_A37441042],4.82,
CCC1(c2ncc[nH]2)Cc2ccccc2O1 (centres unmarked) [SPE_A38747044],2.93,
CC(C)(C)NCC(O)COc1cccc2[nH]c(=O)[nH]c12 (centres unmarked) [SPE_A40084411],1.76,
COc1cc2c(cc1OC)[C@@]13CCN4CC5=CCOC6CC(=O)N2C1[C@H]6[C@H]5C[C@H]43 (some centres unmarked) [SPE_A41995253],1.19,
CC(C)(C)NCC(O)COc1cccc2c1CCC(=O)N2 (centres unmarked) [SPE_A42167015],2.81,
O=C(O)COCCN1CCN(C(c2ccccc2)c2ccc(Cl)cc2)CC1 (centres unmarked) [SPE_A42571354],-3.1,

Compound,activation at 10 µM [%],other results
CC(C)CCCC(C)[C@H]1CCC2C3CC=C4C[C@@H](O)CC[C@]4(C)C3CC[C@@]21C (some centres unmarked) [SPE_A42883684],-4.75,
C=CC(C)(O)CCC=C(C)C (centres unmarked) [SPE_A43082461],-7.7,
O=C(O)CC(S)C(=O)O (centres unmarked) [SPE_A43435802],5.6,
CC(CN(C)C)C(C)(O)Cc1ccc(Cl)cc1 (centres unmarked) [SPE_A43809092],-8.69,
CCOc1ccccc1O[C@@H](c1ccccc1)[C@@H]1CNCCO1.CCOc1ccccc1O[C@H](c1ccccc1)[C@H]1CNCCO1 [SPE_A43974499],,PL_Result: 14.61
C[N+]12CCC(CC1)C(OC(=O)C(O)(c1ccccc1)c1ccccc1)C2 (centres unmarked) [SPE_A46066006],2.01,
CNC1CCCN(c2c(F)cc3c(=O)c(C(=O)O)cn(C4CC4)c3c2OC)C1 (centres unmarked) [SPE_A47790386],3.04,
CCc1ccc(CCOc2ccc(CC3SC(=O)NC3=O)cc2)nc1 (centres unmarked) [SPE_A48430263],-1.25,
CC(CNS(=O)(=O)C(C)C)c1ccc(-c2ccc(C#N)cc2)cc1 (centres unmarked) [SPE_A50062753],-2.67,
COc1ccc(COc2cc3oc(=O)c4cc(C(C)O)ccc4c3cc2OC)cc1 (centres unmarked) [SPE_A50998626],-7.77,
NCC1CC(=O)N(Cc2ccccc2)C1 (centres unmarked) [SPE_A51355958],2,
OC(CN1CCN(c2cccc(Cl)c2)CC1)C(c1ccccc1)c1ccccc1 (centres unmarked) [SPE_A51829654],-10.3,
CCC[N+]12C3C[C@H](C4C(O)[C@]5(C[C@@H]41)c1ccccc1N(C)[C@@H]35)[C@H](CC)[C@H]2O (some centres unmarked) [SPE_A53539450],-3.5,
CC1(C)S[C@@H]2[C@H](NC(=O)C(C(=O)O)c3ccsc3)C(=O)N2[C@H]1C(=O)O (some centres unmarked) [SPE_A55051145],-6.58,
C=C[C@@]1(C)CC(=O)[C@@]2(O)[C@](C)(O1)[C@@H](OC(C)=O)[C@@H](O)C1C(C)(C)CC[C@H](O)[C@@]12C (some centres unmarked) [SPE_A55416093],-12.3,
COc1ccc2c(c1)nc([S+]([O-])Cc1ncc(C)c(OC)c1C)[n]2[Mg][n]1c([S+]([O-])Cc2ncc(C)c(OC)c2C)nc2cc(OC)ccc21 (centres unmarked) [SPE_A56892734],-9.5,
Nc1ncnc2c1ncn2C1CCCO1 (centres unmarked) [SPE_A56987319],0.343,
C[N+]1(C)CCc2cc3c(cc2[C@H]1[C@@H]1OC(=O)c2c1ccc1c2OCO1)OCO3 [SPE_A57798559],-11.7,
O=C(O)C(Cc1ccccc1)NCc1ccc(Cl)cc1 (centres unmarked) [SPE_A57806482],2.25,
CCC1NC(=O)c2cc(S(N)(=O)=O)c(Cl)cc2N1 (centres unmarked) [SPE_A59303141],-4.81,
CCCN(C/C=C/I)C1CCc2cccc(O)c2C1 (centres unmarked) [SPE_A60594020],6.75,

Compound,activation at 10 µM [%],other results
O=C(O)C1CN(CCCP(=O)(O)O)CCN1 (centres unmarked) [SPE_A60832661],-0.285,
O=C1Nc2cc(Cl)c(Cl)cc2N2CCNCC12 (centres unmarked) [SPE_A62021152],-10.8,
OC(c1ccccc1)C1CCN(CCc2ccccc2)CC1 (centres unmarked) [SPE_A62057054],3.01,
CC(O)(C(=O)Nc1ccc(S(=O)(=O)c2ccccc2)cc1)C(F)(F)F (centres unmarked) [SPE_A62209527],-3.22,
CC(CN)CC(=O)O (centres unmarked) [SPE_A62890442],-10.6,
OCCN1C[C@@H](O)[C@@H](O)C(O)C1CO (some centres unmarked) [SPE_A63310107],-7.51,
O=C(NCc1ccc(F)cc1)N1CCN2C(=O)OC(c3ccccc3)(c3ccccc3)C2C1 (centres unmarked) [SPE_A63344375],-2.64,
CC(C)(C)C(=O)OCOC(=O)C1N2C(=O)CC2S(=O)(=O)C1(C)C (centres unmarked) [SPE_A63431791],-1.74,
O=c1[nH]c(=O)n([C@H]2C[C@H](O)[C@@H](CO)O2)cc1/C=C/Br [SPE_A63675168],-6.33,
CC1(C)O[C@@H]2CC3C4C[C@H](F)C5=CC(=O)C=CC5(C)C4C(O)CC3(C)[C@]2(C(=O)CO)O1 (some centres unmarked) [SPE_A65449987],6.74,
COc1cc(N)c(Cl)cc1C(=O)NC1CN2CCC1CC2 (centres unmarked) [SPE_A65615053],-14.1,
CC(=O)OCC(=O)[C@@]1(O)CCC2C3CCC4=CC(=O)CC[C@]4(C)C3[C@@H](O)C[C@@]21C (some centres unmarked) [SPE_A65767837],-13.7,
CC(CCCCC(=O)Nc1ccc(C(F)(F)F)cc1)NCCc1c[nH]cn1 (centres unmarked) [SPE_A66435872],38.2,
CC1CCN(C(c2ccc(F)cc2)c2ccc(C(C)C(=O)O)cc2-c2ccc(C(F)(F)F)cc2)CC1 (centres unmarked) [SPE_A66521565],-6.16,
COc1ccc(OC)c(C2C(C#N)=C(N)Oc3[nH]nc(-c4ccc5ccccc5c4)c32)c1 (centres unmarked) [SPE_A67036568],-6.11,
CCC(N)C(O)c1ccc(O)c(O)c1 (centres unmarked) [SPE_A68509429],-8.71,
CN1c2ccccc2C(=O)N2CCc3c([nH]c4ccccc34)C21 (centres unmarked) [SPE_A68631409],-12.1,
Clc1ccc(C23CNCC2C3)cc1Cl (centres unmarked) [SPE_A68942014],-4.9,
CCCCCCCCCCCCCCCCCC(=O)OCC(O)[C@H]1OC[C@H](O)[C@H]1O (some centres unmarked) [SPE_A70197423],-4.54,
NC(Cc1c[nH]c2ccc(O)cc12)C(=O)O (centres unmarked) [SPE_A73930134],-6.97,

# — article PMC13083723 (Patterns, 2026)
